The nature of this series: Solubility of flame retardant in styrene. The format is physicochemical.

SMILES strings stand for the structures.

For the setting “at 40° C.”, `O=C1NC(=O)C2CC(Br)C(Br)CC12` (stereo not drawn) [II] showed a Solubility of more than 1 wt %. `O=C1C2C3CC(C(Br)C3Br)C2C(=O)N1CCN1C(=O)C2C3CC(C(Br)C3Br)C2C1=O` (stereo not drawn) [BN-451, reference compound] came in with a Solubility (at 25° C.) of less than 0.1 wt %. Still for that read-out and setting: the same measure for `CN1C(=O)C2CC(Br)C(Br)CC2C1=O` (stereo not drawn) [III]: more than 5 wt %.

The record behind these values is patent publication US20080096990A1, “Flame Retardant Polystyrene Foam Compositions” (priority 2004, published 2008).
